According to PMC8213057, “Targeting ALK2: An Open Science Approach to Developing Therapeutics for the Treatment of Diffuse Intrinsic Pontine Glioma” (Journal of Medicinal Chemistry, 2020):
“And” between values parts separate entries of the source, which are not always exact repeats. Identical values can stand only once.

Experiments:
TAK1 = target: T1, TAK1 (Homo sapiens, UniProt O43318); conditions: 1 μM; Run 1, Run 2
T1 sequence (O43318 1-303 limits assumed): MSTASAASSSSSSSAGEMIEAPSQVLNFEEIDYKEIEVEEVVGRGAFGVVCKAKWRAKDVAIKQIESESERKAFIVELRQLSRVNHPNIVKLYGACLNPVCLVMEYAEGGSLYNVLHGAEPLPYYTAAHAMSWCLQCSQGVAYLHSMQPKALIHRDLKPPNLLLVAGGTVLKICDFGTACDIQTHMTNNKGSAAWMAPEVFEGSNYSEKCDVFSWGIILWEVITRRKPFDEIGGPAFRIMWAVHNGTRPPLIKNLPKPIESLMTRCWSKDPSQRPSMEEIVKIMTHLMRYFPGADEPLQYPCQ

CDK5/P25 = CDK5/P25 (Homo sapiens, UniProt Q00535); assay: biochemical; conditions: read-out: % enzyme activity, 1 μM; Run 1, Run 2
STK32B/YANK2 = STK32B/YANK2 (Homo sapiens, UniProt Q9NY57); conditions: 1 μM; Run 1, Run 2
CYP2B6 = CYP2B6 (Homo sapiens, UniProt P20813); conditions: read-out: CYP2B6 IC50; human liver microsomes
MNK2 [1] = target: MNK2 (Homo sapiens, UniProt Q9HBH9); conditions: 1 μM; Run 1, Run 2
CK1G3 = CK1G3 (Homo sapiens, UniProt Q9Y6M4); conditions: 1 μM; Run 1, Run 2
HIPK3 = HIPK3 (Homo sapiens, UniProt Q9H422); assay: biochemical; conditions: read-out: % enzyme activity, 1 μM; Run 1, Run 2
IKKb/IKBKB = target: T2, IKKb/IKBKB (Homo sapiens, UniProt O14920); assay: biochemical; conditions: read-out: % enzyme activity, 1 μM; Run 1, Run 2
T2 sequence (O14920 1-756): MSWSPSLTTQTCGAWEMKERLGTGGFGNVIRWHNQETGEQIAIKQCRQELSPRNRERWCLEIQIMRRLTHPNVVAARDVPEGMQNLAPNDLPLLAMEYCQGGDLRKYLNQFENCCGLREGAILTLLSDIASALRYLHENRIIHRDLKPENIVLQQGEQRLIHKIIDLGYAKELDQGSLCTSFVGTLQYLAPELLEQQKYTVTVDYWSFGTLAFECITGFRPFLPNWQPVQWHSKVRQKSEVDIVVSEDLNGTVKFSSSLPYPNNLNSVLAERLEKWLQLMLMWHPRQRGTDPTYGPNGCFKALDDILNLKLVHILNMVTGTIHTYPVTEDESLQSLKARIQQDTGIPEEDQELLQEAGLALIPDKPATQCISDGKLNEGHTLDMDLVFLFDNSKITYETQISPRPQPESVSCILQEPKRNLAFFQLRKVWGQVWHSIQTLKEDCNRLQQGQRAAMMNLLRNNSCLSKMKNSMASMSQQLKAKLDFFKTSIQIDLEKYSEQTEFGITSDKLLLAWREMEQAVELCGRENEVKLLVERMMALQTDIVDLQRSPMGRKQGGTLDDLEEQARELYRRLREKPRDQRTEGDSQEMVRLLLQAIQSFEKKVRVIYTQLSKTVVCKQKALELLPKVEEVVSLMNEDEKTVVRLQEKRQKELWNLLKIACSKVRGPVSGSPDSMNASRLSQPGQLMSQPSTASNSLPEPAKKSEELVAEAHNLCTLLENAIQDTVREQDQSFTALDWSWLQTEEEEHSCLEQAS

RSK4 = RSK4 (Homo sapiens, UniProt Q9UK32); assay: biochemical; conditions: read-out: % enzyme activity, 1 μM; Run 1, Run 2
MARK2/PAR-1Ba = MARK2/PAR-1Ba (Homo sapiens, UniProt Q7KZI7); conditions: 1 μM; Run 1, Run 2
MST4 = MST4 (Homo sapiens, UniProt Q9P289); assay: biochemical; conditions: read-out: % enzyme activity, 1 μM; Run 1, Run 2
PKA = PKA (Homo sapiens, UniProt P17612); conditions: 1 μM; Run 1, Run 2
MNK2 [2] = tested on: MNK2
DDR1 = target: T3, DDR1 (Homo sapiens, UniProt Q08345); assay: 375-member kinase panel; format: biochemical; conditions: Run 1, Run 2
T3 construct: purchased Reaction Biology Corporation

[3] = 10 mg/kg PO, relative to 8b
BLK = BLK (Homo sapiens, UniProt P51451); conditions: 1 μM; Run 1, Run 2
in vivo = conditions: female, CB17 SCID, mouse, po, 10 mg/kg
in vitro = conditions: human, Caco-2, pH 7.4
ALK2/ACVR1 = target: T4, ALK2/ACVR1 (Homo sapiens, UniProt Q04771); format: biochemical; conditions: biochemical ALK5 IC50 / ALK2 IC50
T4 construct: purchased Reaction Biology Corporation
T4 sequence (Q04771 21-509): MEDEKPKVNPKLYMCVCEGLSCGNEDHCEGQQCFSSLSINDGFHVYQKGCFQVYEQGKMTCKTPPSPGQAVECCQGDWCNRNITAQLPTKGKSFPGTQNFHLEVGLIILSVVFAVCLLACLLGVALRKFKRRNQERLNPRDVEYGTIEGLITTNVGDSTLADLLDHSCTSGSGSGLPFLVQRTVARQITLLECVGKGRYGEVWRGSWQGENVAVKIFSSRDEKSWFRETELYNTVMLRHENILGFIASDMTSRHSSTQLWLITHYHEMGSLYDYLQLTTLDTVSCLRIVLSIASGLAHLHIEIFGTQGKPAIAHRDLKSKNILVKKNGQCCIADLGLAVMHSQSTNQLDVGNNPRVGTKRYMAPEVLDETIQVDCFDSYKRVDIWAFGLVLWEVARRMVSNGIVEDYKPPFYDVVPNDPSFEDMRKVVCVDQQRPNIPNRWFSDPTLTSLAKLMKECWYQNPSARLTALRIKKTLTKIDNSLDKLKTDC

Chain of MST4 (Q9P289 whole entry): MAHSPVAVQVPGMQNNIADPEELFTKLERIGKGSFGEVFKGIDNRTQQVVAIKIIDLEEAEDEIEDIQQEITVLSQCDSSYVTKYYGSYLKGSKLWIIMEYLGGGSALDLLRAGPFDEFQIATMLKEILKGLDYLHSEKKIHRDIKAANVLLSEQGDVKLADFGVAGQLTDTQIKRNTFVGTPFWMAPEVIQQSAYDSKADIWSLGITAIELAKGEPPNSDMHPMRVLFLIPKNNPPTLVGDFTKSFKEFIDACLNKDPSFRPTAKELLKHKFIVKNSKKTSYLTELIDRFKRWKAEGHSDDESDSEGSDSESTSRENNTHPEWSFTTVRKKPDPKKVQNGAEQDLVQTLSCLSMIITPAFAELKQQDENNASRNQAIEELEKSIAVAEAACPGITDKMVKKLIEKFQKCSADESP
Chain of RSK4 (Q9UK32 whole entry): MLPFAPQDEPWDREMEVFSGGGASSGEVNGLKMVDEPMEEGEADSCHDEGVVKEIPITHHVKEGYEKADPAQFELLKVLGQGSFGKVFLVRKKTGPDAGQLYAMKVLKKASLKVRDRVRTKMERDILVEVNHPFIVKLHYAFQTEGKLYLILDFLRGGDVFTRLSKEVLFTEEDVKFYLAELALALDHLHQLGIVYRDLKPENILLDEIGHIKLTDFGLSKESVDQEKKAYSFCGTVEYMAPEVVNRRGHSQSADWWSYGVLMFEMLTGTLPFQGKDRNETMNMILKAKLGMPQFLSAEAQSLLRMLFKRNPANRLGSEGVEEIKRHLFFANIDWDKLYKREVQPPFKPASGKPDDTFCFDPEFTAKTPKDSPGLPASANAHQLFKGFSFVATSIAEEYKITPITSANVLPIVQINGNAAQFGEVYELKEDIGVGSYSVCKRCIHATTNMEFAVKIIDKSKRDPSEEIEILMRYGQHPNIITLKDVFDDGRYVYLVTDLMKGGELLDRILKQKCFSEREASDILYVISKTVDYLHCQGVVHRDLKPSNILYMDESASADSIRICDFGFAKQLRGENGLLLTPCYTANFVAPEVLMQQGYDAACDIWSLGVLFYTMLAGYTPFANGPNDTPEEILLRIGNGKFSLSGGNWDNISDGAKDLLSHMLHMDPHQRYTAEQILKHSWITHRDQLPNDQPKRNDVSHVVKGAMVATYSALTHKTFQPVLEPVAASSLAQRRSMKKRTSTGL
Chain of CK1G3 (Q9Y6M4 whole entry): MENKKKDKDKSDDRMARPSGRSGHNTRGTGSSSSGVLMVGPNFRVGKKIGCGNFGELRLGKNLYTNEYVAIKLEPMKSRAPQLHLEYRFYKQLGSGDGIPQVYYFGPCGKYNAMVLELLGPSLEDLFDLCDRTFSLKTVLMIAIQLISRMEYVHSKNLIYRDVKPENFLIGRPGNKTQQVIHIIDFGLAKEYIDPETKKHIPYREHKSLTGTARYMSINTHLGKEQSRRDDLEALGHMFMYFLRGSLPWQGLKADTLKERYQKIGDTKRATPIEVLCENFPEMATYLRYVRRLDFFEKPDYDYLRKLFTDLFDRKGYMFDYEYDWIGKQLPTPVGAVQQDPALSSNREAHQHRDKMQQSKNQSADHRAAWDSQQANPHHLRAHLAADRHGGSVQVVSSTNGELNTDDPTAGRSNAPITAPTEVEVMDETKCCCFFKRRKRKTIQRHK
Chain of HIPK3 (Q9H422 whole entry): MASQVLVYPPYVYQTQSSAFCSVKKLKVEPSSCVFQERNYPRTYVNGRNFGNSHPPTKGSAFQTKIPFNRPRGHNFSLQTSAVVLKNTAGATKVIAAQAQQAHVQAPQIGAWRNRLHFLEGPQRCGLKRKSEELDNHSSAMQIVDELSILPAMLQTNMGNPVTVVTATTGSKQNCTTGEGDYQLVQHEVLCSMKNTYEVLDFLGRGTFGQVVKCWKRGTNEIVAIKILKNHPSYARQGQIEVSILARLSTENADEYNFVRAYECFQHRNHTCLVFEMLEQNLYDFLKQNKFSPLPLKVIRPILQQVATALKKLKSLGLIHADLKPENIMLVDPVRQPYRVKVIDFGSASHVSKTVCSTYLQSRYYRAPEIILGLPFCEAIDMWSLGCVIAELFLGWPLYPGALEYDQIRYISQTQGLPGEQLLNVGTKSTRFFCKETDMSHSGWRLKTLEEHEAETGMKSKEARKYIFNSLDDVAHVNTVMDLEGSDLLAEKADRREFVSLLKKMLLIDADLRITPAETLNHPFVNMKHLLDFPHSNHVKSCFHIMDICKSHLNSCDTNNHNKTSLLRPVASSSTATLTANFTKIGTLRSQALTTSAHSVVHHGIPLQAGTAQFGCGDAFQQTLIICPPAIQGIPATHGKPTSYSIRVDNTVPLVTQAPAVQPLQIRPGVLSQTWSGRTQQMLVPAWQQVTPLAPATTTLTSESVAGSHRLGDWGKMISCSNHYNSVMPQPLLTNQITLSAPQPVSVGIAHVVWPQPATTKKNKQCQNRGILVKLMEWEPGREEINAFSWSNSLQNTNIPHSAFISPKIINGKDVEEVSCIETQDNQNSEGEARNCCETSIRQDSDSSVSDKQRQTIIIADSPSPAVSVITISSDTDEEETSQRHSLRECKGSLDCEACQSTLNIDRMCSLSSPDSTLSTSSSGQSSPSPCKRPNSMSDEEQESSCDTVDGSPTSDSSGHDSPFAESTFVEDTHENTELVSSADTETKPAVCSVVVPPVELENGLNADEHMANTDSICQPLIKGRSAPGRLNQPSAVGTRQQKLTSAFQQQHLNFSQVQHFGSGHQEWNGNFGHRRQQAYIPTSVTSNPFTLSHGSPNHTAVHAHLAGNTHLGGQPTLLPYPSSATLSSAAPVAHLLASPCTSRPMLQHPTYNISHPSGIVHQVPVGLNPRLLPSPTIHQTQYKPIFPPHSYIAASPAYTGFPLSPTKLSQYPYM
Chain of CDK5/P25 (Q00535 whole entry): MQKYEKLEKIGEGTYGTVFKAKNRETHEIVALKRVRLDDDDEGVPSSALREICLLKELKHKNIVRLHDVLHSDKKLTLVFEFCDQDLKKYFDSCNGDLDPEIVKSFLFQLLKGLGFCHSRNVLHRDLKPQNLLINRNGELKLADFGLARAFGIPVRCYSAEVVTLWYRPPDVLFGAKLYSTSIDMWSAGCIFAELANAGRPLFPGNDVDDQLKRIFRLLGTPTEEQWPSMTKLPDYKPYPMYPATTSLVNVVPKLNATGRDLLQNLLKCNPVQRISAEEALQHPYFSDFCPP
Chain of CDK5/P25 (Q15078 99-307 partner limits assumed): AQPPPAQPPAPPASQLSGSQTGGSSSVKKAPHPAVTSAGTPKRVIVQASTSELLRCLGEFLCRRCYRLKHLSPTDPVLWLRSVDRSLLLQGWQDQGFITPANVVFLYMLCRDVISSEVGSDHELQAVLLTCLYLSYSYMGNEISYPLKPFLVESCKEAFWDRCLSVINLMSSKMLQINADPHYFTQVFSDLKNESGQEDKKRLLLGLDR
T3 sequence (Q08345 19-913): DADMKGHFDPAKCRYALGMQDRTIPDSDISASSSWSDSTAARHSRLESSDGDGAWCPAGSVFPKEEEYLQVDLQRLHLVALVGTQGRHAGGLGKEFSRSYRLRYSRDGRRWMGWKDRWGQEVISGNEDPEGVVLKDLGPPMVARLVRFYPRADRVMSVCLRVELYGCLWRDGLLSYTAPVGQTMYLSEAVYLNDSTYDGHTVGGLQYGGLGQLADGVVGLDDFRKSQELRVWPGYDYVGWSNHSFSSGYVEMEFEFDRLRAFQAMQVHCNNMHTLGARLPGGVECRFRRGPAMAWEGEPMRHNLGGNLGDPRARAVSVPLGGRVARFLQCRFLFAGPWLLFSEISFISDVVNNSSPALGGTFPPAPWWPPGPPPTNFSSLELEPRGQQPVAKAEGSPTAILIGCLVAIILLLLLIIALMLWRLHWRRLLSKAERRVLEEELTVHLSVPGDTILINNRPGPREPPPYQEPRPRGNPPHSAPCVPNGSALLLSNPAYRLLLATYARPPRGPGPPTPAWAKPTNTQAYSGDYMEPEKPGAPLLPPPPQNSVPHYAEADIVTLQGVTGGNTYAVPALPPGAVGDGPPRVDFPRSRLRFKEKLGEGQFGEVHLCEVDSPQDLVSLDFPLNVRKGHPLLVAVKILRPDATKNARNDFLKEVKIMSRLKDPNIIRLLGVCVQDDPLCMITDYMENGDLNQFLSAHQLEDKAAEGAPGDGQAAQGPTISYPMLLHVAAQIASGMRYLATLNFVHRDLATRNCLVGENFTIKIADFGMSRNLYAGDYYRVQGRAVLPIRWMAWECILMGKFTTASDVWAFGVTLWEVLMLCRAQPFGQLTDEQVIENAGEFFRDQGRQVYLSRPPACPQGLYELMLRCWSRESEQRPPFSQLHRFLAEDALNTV
Chain of MARK2/PAR-1Ba (Q7KZI7 whole entry): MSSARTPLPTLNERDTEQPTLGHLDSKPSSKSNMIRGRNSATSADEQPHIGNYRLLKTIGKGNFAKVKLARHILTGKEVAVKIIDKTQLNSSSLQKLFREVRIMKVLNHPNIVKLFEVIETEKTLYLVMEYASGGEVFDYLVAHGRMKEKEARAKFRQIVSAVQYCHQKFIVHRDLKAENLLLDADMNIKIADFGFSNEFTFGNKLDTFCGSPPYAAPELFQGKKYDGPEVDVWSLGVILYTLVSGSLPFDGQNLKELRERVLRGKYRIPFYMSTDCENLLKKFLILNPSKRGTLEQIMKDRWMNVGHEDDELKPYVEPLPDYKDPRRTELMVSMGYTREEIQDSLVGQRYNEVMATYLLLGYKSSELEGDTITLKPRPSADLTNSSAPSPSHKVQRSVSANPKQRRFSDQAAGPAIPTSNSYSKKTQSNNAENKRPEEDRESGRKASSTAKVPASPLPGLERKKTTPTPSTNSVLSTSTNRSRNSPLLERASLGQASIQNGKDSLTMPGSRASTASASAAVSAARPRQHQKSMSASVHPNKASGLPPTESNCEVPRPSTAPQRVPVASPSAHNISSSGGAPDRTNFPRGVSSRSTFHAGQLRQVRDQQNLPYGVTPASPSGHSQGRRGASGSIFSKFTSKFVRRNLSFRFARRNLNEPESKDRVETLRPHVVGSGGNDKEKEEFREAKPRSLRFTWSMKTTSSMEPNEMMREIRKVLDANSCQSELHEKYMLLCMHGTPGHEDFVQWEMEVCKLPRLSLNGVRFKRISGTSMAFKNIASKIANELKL

Compound	% enzyme activity (TAK1)	remaining activity at 1 µM (CDK5/P25)	% enzyme activity at 1 μM (TGFBR2)	% enzyme activity (STK32B/YANK2)	% enzyme activity (CK1G3)	remaining activity at 1 µM (HIPK3)	remaining activity at 1 µM (IKKb/IKBKB)	remaining activity at 1 µM (RSK4)	% enzyme activity (MARK2/PAR-1Ba)	remaining activity at 1 µM (MST4)	% enzyme activity (PKA)	% enzyme activity at 1 μM (MNK2 [2])	also measured
COc1cc(-c2cncc(-c3ccc(N4C[C@@H](C)N(C)[C@@H](C)C4)cc3)c2C)cc(F)c1C(N)=O [Compound 26c, 2-Fluoro-6-methoxy-4-(4-methyl-5-(4-((3R,5S)-3,4,5-trimethylpiperazin-1-yl)phenyl)pyridin-3-yl)benzamide]	98.46%	94.8%	106% and 105%	94.20%	77.64%	90.4%	101%	95.5%	103.03%	95%	95.62%	70.8% and 68.3%	IC50 (NanoBRET ALK2): 100 nM; IC50 (CYP2B6): > 50000 nM; % enzyme activity (MNK2 [1]): 68.28%; IC50 (DLA ALK5): > 5000 nM
COc1cc(-c2cncc(-c3ccc(N4CCN(C)CC4)cc3)c2C)cc(F)c1C(N)=O [Compound 26a, 2-Fluoro-6-methoxy-4-(4-methyl-5-(4-(4-methylpiperazin-1-yl)phenyl)pyridin-3-yl)benzamide]	97.44%	94.6%	103% and 97.4%	87.20%	64.87%	97.8%	104%	96%	91.66%	86.9%	96.94%	48.2%	% enzyme activity (DDR1; 1 μM): 31.23%; remaining activity at 1 µM (DDR1; read-out: % enzyme activity, 1 μM): 32.1%; fold increase in AUCinf [3]: > 13 fold; fold increase in Cmax [3]: greater than 17 fold; % enzyme activity (BLK): 95.94%; half-life at 24 h (in vivo): 2.56 h; efflux ratio (in vitro): < 3; Fold Selectivity (ALK5/ALK2) (ALK2/ACVR1): 350
